ChEMBL document CHEMBL3045194, “Neocryptolepine analogues containing N-substituted side-chains at C-11: synthesis and antischistosomicidal activity” (Med Chem Res, 2012)

How the values were obtained:
[1] = system: Schistosoma mansoni; assay: Antischistosomicidal activity against Schistosoma mansoni egyptian strain assessed as worm mortality at 5 ug/ml after 5 days by stereomicroscopy; assay type: functional; settings: 120 h
[2] = system: Schistosoma mansoni; assay: Antischistosomicidal activity against Schistosoma mansoni egyptian strain assessed as worm mortality after 5 days by stereomicroscopy; assay type: functional, organism-based; settings: for IC90: Schistosoma mansoni, egyptian strain, 120 h

SMILES	mortality at 5 µg/mL [1]	IC50 [2]	IC90 [2]
Cn1c2nc3ccccc3c-2c(Cl)c2ccccc21 [11-CHLORONEOCRYPTOLEPINE]	75%		
Cn1c2nc3ccccc3c-2cc2ccccc21 [NEOCRYPTOLEPINE]	5%		
CCN(CC)CCCC(C)Nc1c2c3ccccc3nc-2n(C)c2ccc(Cl)cc12 (stereo not drawn)	100%	11.74 uM/ml	16.8 µM
Cn1c2nc3ccccc3c-2c(N2CCN(CCO)CC2)c2cc(C(F)(F)F)ccc21	25%		
O=C(C1CCCCC1)N1CC(=O)N2CCc3ccccc3C2C1 (stereo not drawn) [PRAZIQUANTEL]	100%	0.21 uM/ml	0.37 µM
CN1CCN(c2c3c4ccccc4nc-3n(C)c3ccccc23)CC1	0%		
Cn1c2nc3ccccc3c-2c(Cl)c2cc(C(F)(F)F)ccc21	91.7%		
Clc1ccc2nc3[nH]c4ccccc4c3c(Cl)c2c1	0%		
Cn1c2nc3ccccc3c-2c(NCCCO)c2cc(Br)ccc21	66.7%		
Cn1c2nc3ccccc3c-2c(Nc2ccc(CCO)cc2)c2ccccc21	58.3%		
Cn1c2nc3ccccc3c-2c(NCCCN2CCN(CCCNc3c4c5ccccc5nc-4n(C)c4ccc(C(F)(F)F)cc34)CC2)c2cc(C(F)(F)F)ccc21	8.3%		
Cn1c2nc3ccccc3c-2c(Cl)c2cc(Br)ccc21	25%		
Cn1c2nc3ccccc3c-2c(Nc2ccc(C(F)(F)F)cc2)c2ccccc21	100%	3.73 uM/ml	4.81 µM
Cn1c2nc3ccccc3c-2c(Nc2ccc(CCO)cc2)c2cc(Br)ccc21	91.7%		
CN1CCN(c2c3c4ccccc4nc-3n(C)c3ccc(C(F)(F)F)cc23)CC1	100%	4.61 uM/ml	6.05 µM
Cn1c2nc3ccccc3c-2c(NCCCN2CCN(CCCNc3c4c5ccccc5nc-4n(C)c4ccc(Cl)cc34)CC2)c2cc(Cl)ccc21	100%	3.42 uM/ml	5.1 µM
Cn1c2nc3ccccc3c-2c(NCCc2c[nH]c3ccccc23)c2ccccc21	100%	2.7 uM/ml	3.95 µM
Cn1c2nc3ccccc3c-2c(N2CCOCC2)c2ccccc21	66.7%		
Cn1c2nc3ccccc3c-2c(Nc2ccccc2)c2ccccc21	100%	3.07 uM/ml	4.3 µM
